Assay results: patent US10633353B2, “Polymerizable compound, composition, polymer, optically anisotropic body, liquid crystal display element, and organic EL display” (DIC Corporation, priority 2014, dated 2020)

assay: Preservation stability of the coating liquid; type: physicochemical; conditions: coating liquid stored for 2 months shielded from light at 0° C.; appearance and GPC
Protocol: The preservation stability of the coating liquid was evaluated on a scale of A to E on the basis of the state of the coating liquid that was stored for 2 months under a condition where the coating liquid was shielded from light at 0° C.
A: No visual change in the appearance of the coating liquid was confirmed. A GPC analysis of the coating liquid confirmed that the change in the composition of the coating liquid was 1% or less.
B: No visual change in the appearance of the coating liquid was confirmed. A GPC analysis of the coating liquid confirmed that the change in the composition of the coating liquid was 2% or less.
C: A visual change in the appearance of the coating liquid was confirmed; a trace amount of insoluble components were confirmed, or a GPC analysis of the coating liquid confirmed that the change in the composition of the coating liquid was 3% or less.
D: A visual change in the appearance of the coating liquid was confirmed; insoluble components were confirmed. The ratio of the weight of the insoluble components to the total solid content was 5% or less.
E: A large amount of insoluble components were visually confirmed. The ratio of the weight of the insoluble components to the total solid content was 5% or more.

Compound	Preservation stability
C=CC(=O)OCCCCOc1ccc(C(=O)OCCc2ccc(OC(=O)c3ccc(OCCCCOC(=O)C=C)cc3)c(/C=N/N(CCCCCC)c3nc4ccc5ccccc5c4s3)c2)cc1 [1-c-40]	A (No visual change in the appearance of the coating liquid was confirmed. A GPC analysis of the coating liquid confirmed that the change in the composition of the coating liquid was 1% or less.)
C=CC(=O)OCCCOc1ccc(C(=O)OCCc2ccc(CCOC(=O)c3ccc(OCCCOC(=O)C=C)cc3)c(/C=N/N(C(=O)C=C)c3nc(-c4ccc5ccccc5c4)cs3)c2)cc1 [1-c-41]	A (No visual change in the appearance of the coating liquid was confirmed. A GPC analysis of the coating liquid confirmed that the change in the composition of the coating liquid was 1% or less.)
C=CC(=O)OCCCCCCOc1ccc(OC(=O)C2CCC(C(=O)OCCc3ccc(OC(=O)C4CCC(C(=O)Oc5ccc(OCCCCCCOC(=O)C=C)cc5)CC4)c(/C=N/Nc4cccc5ccccc45)c3)CC2)cc1 (centres unmarked) [1-c-42]	B (No visual change in the appearance of the coating liquid was confirmed. A GPC analysis of the coating liquid confirmed that the change in the composition of the coating liquid was 2% or less.)
C=CC(=O)OCCCCCCOc1ccc(/C=C/C(=O)Oc2ccc(OC(=O)/C=C/c3ccc(OCCCCCCOC(=O)C=C)cc3)c(/C=N/Nc3nc4ccccc4s3)c2)cc1 [1-c-43]	B (No visual change in the appearance of the coating liquid was confirmed. A GPC analysis of the coating liquid confirmed that the change in the composition of the coating liquid was 2% or less.)
C=CC(=O)OCCCOc1ccc(/C=C/C(=O)Oc2ccc(OC(=O)/C=C/c3ccc(OCCCOC(=O)C=C)cc3)c(/C=N/Nc3nc4ccccc4s3)c2)cc1 [1-c-44]	B (No visual change in the appearance of the coating liquid was confirmed. A GPC analysis of the coating liquid confirmed that the change in the composition of the coating liquid was 2% or less.)
C=CC(=O)OCCCCOc1ccc(/C=C/C(=O)Oc2ccc(OC(=O)/C=C/c3ccc(OCCCCOC(=O)C=C)cc3)c(/C=N/Nc3nc4ccccc4s3)c2)cc1 [1-c-45]	B (No visual change in the appearance of the coating liquid was confirmed. A GPC analysis of the coating liquid confirmed that the change in the composition of the coating liquid was 2% or less.)
C=CC(=O)OCCCOc1ccc(/C=C/C(=O)Oc2ccc(OC(=O)/C=C/c3ccc(OCCCOC(=O)C=C)c(OC)c3)c(/C=N/Nc3nc4ccccc4s3)c2)cc1OC [1-c-46]	B (No visual change in the appearance of the coating liquid was confirmed. A GPC analysis of the coating liquid confirmed that the change in the composition of the coating liquid was 2% or less.)
C=CC(=O)OCCCOc1ccc(/C=C/C(=O)Oc2ccc(OC(=O)/C=C/c3ccc(OCCCOC(=O)C=C)c(Cl)c3)c(/C=N/Nc3nc4ccccc4s3)c2)cc1Cl [1-c-47]	B (No visual change in the appearance of the coating liquid was confirmed. A GPC analysis of the coating liquid confirmed that the change in the composition of the coating liquid was 2% or less.)
C=C(C)C(=O)OCCCOc1ccc(/C=C/C(=O)Oc2ccc(OC(=O)/C=C/c3ccc(OCCCOC(=O)C(=C)C)cc3)c(/C=N/Nc3nc4ccccc4s3)c2)cc1 [1-c-48]	B (No visual change in the appearance of the coating liquid was confirmed. A GPC analysis of the coating liquid confirmed that the change in the composition of the coating liquid was 2% or less.)
C=CC(=O)OCCCOc1ccc(CCC(=O)Oc2ccc(OC(=O)CCc3ccc(OCCCOC(=O)C=C)cc3)c(/C=N/Nc3nc4ccccc4s3)c2)cc1 [1-c-49]	A (No visual change in the appearance of the coating liquid was confirmed. A GPC analysis of the coating liquid confirmed that the change in the composition of the coating liquid was 1% or less.)
C=CC(=O)OCCCCOc1ccc(CCC(=O)Oc2ccc(OC(=O)CCc3ccc(OCCCCOC(=O)C=C)cc3)c(/C=N/Nc3nc4ccccc4s3)c2)cc1 [1-c-50]	A (No visual change in the appearance of the coating liquid was confirmed. A GPC analysis of the coating liquid confirmed that the change in the composition of the coating liquid was 1% or less.)
C=CC(=O)OCCCCCCOc1ccc(CCC(=O)Oc2ccc(OC(=O)CCc3ccc(OCCCCCCOC(=O)C=C)cc3)c(/C=N/Nc3nc4ccccc4s3)c2)cc1 [1-c-51]	A (No visual change in the appearance of the coating liquid was confirmed. A GPC analysis of the coating liquid confirmed that the change in the composition of the coating liquid was 1% or less.)
C=CC(=O)OCCCOc1ccc(CCC(=O)Oc2ccc(OC(=O)CCc3ccc(OCCCOC(=O)C=C)c(OC)c3)c(/C=N/Nc3nc4ccccc4s3)c2)cc1OC [1-c-52]	A (No visual change in the appearance of the coating liquid was confirmed. A GPC analysis of the coating liquid confirmed that the change in the composition of the coating liquid was 1% or less.)
C=CC(=O)OCCCOc1ccc(C#Cc2ccc(C#Cc3ccc(OCCCOC(=O)C=C)cc3)c(/C=N/Nc3nc4ccccc4s3)c2)cc1 [1-c-67]	B (No visual change in the appearance of the coating liquid was confirmed. A GPC analysis of the coating liquid confirmed that the change in the composition of the coating liquid was 2% or less.)
C=CC(=O)OCCCCCCOc1ccc(C#Cc2ccc(C#Cc3ccc(OCCCCCCOC(=O)C=C)cc3)c(/C=N/Nc3nc4ccccc4s3)c2)cc1 [1-c-68]	B (No visual change in the appearance of the coating liquid was confirmed. A GPC analysis of the coating liquid confirmed that the change in the composition of the coating liquid was 2% or less.)
C=CC(=O)OCCCCCCOc1ccc(OCCOc2ccc(OCCOc3ccc(OCCCCCCOC(=O)C=C)cc3)c(/C=N/Nc3nc4ccccc4s3)c2)cc1 [1-c-80]	A (No visual change in the appearance of the coating liquid was confirmed. A GPC analysis of the coating liquid confirmed that the change in the composition of the coating liquid was 1% or less.)
C=CC(=O)Oc1ccc(C(=O)OCCc2ccc(OC(=O)c3ccc(OC(=O)C=C)cc3)c(/C=N/Nc3nc4ccccc4s3)c2)cc1 [1-cg-36]	B (No visual change in the appearance of the coating liquid was confirmed. A GPC analysis of the coating liquid confirmed that the change in the composition of the coating liquid was 2% or less.)
C=CC(=O)Oc1ccc(C(=O)OCCc2ccc(CCOC(=O)c3ccc(OC(=O)C=C)cc3)c(/C=N/Nc3nc4ccccc4s3)c2)cc1 [1-cg-37]	B (No visual change in the appearance of the coating liquid was confirmed. A GPC analysis of the coating liquid confirmed that the change in the composition of the coating liquid was 2% or less.)
C=CC(=O)OCCCCCCOc1ccc(C(=O)Oc2ccc(C(=O)OCCc3ccc(OC(=O)c4ccc(OC(=O)c5ccc(OCCCCCCOC(=O)C=C)cc5)cc4)c(/C=N/Nc4nc5ccccc5s4)c3)cc2)cc1 [1-ch-79]	A (No visual change in the appearance of the coating liquid was confirmed. A GPC analysis of the coating liquid confirmed that the change in the composition of the coating liquid was 1% or less.)
C=CC(=O)OCCCCOC(=O)/C=C/c1ccc(CCC(=O)Oc2ccc(OC(=O)CCc3ccc(/C=C/C(=O)OCCCCOC(=O)C=C)cc3)c(/C=N/Nc3nc4ccccc4s3)c2)cc1 [1-cj-59]	A (No visual change in the appearance of the coating liquid was confirmed. A GPC analysis of the coating liquid confirmed that the change in the composition of the coating liquid was 1% or less.)
C=CC(=O)OCCCCCCOC(=O)/C=C/c1ccc(CCC(=O)Oc2ccc(OC(=O)CCc3ccc(/C=C/C(=O)OCCCCCCOC(=O)C=C)cc3)c(/C=N/Nc3nc4ccccc4s3)c2)cc1 [1-cj-60]	A (No visual change in the appearance of the coating liquid was confirmed. A GPC analysis of the coating liquid confirmed that the change in the composition of the coating liquid was 1% or less.)
C=CC(=O)OCCCOC(=O)/C=C/c1ccc(CCC(=O)Oc2ccc(OC(=O)CCc3ccc(/C=C/C(=O)OCCCOC(=O)C=C)cc3)c(/C=N/Nc3nc4ccccc4s3)c2)cc1 [1-cj-63]	A (No visual change in the appearance of the coating liquid was confirmed. A GPC analysis of the coating liquid confirmed that the change in the composition of the coating liquid was 1% or less.)
C=CC(=O)OCCCCCCOc1ccc(OC(=O)C2CCC(COc3ccc(OCC4CCC(C(=O)Oc5ccc(OCCCCCCOC(=O)C=C)cc5)CC4)c(/C=N/Nc4nc5ccccc5s4)c3)CC2)cc1 (centres unmarked) [1-cm-88]	A (No visual change in the appearance of the coating liquid was confirmed. A GPC analysis of the coating liquid confirmed that the change in the composition of the coating liquid was 1% or less.)
C=CC(=O)OCCCOc1ccc(OC(=O)C2CCC(COc3ccc(OCC4CCC(C(=O)Oc5ccc(OCCCOC(=O)C=C)cc5)CC4)c(/C=N/Nc4nc5ccccc5s4)c3)CC2)cc1 (centres unmarked) [1-cm-89]	A (No visual change in the appearance of the coating liquid was confirmed. A GPC analysis of the coating liquid confirmed that the change in the composition of the coating liquid was 1% or less.)
C=CC(=O)OCCOCCOCCOc1ccc(OC(=O)C2CCC(COc3ccc(OCC4CCC(C(=O)Oc5ccc(OCCOCCOCCOC(=O)C=C)cc5)CC4)c(/C=N/Nc4nc5ccccc5s4)c3)CC2)cc1 (centres unmarked) [1-cm-105]	A (No visual change in the appearance of the coating liquid was confirmed. A GPC analysis of the coating liquid confirmed that the change in the composition of the coating liquid was 1% or less.)
C=CC(=O)OCCOCCOCCOc1ccc(OC(=O)C2CCC(COc3ccc(OCC4CCC(C(=O)Oc5ccc(OCCOCCOCCOC(=O)C=C)cc5)CC4)c(/C=N/N(CCCCCC)c4nc5ccccc5s4)c3)CC2)cc1 (centres unmarked) [1-cmn-90]	A (No visual change in the appearance of the coating liquid was confirmed. A GPC analysis of the coating liquid confirmed that the change in the composition of the coating liquid was 1% or less.)
